In this experiment the test system is CEM cells HIV-1 protection, formazan growth assay. Put plainly: NCI AIDS Antiviral Assay. The following applies: for pIC50: measured here: growth of uninfected CEM cells. Put shortly:
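Category rules: moderately active means at least 50% protection on retest, and confirmed active means 100% protection reproducibly. The underlying data came from a formazan growth assay in HIV-1-infected CEM cells.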

pEC50, pIC50: −log10 of the molar value. Several values for one entry are separate records, joined by “and”; a condition that tells them apart may be missing. Identical values can stand only once. Activity calls are given as the source filed them.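 How the source made its calls: active means compounds giving half or more protection of infected cells from virus-caused growth loss, again on retest; inactive means the rest.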 Where only a bound is given, the exact number is not on record here.

In the case of `O=C(O)C[C@@H]1C(=O)OC2C3COC(=O)c4cc(O)c(O)c(O)c4-c4c(cc(O)c(O)c4O)C(=O)OC2C(OC(=O)c2cc(O)c(O)c4c2C1[C@H](O)C(=O)O4)C(OC(=O)c1cc(O)c(O)c(O)c1)O3` (stereo partly specified), the pEC50 (commonly the EC50 on a negative log10 scale, so that one unit is a factor of ten) was 5.58 and the negative logarithm of the IC50 (pIC50) (in general, the IC50 on a negative log10 scale, so that one unit is a factor of ten) is 4.89. The like results for `CC(=O)c1c(O)cc(O)c(-c2c(C)cc(O)c3c2C(=O)c2cccc(O)c2C3=O)c1O` were, in that order, below 3.70 and 4.59. As to `CC1CC2C3CCC4=CC(=O)C=CC4(C)C3(F)C(O)CC2(C)C1(O)C(=O)COP(=O)(O)O` (stereo unspecified), the outcome was inactive. With `O=C1CC2C3CC1C2C(=O)O3` (stereo unspecified), the pEC50 was below 3.70 and the pIC50 was below 3.70. As for `NS(=O)(=O)c1ccccc1C(=O)N/N=C(\c1nc2ccc([N+](=O)[O-])cc2[nH]c1=O)C(O)c1ccc([N+](=O)[O-])cc1` (stereo unspecified), the pEC50 is below 3.92 and the pIC50 was 3.97. For the compound `COc1cc2c(cc1OC)C1Cc3cc(OC)c(OC)cc3C(C2)N1C`, the pEC50 is below 3.15; the pIC50 is 4.28 and 4.19. As for `O=C1OC(=O)C2CC3C(CC12)C1(Cl)C(Cl)=C(Cl)C3(Cl)C1(Cl)Cl` (stereo unspecified), the pEC50 was below 3.70 and the pIC50 is 5.18. Consider `CC1CCCCNC1=S` (stereo unspecified), for which the pEC50 was below 3.70 and the pIC50 is below 3.70. As for `C=C1CC/C=C(/C(=O)O)CC[C@H]2[C@@H]1CC2(C)C`, the pEC50 is below 3.70 and the pIC50 is 3.75.

`CCOc1ccc(-n2c(=O)c3nn4c(=O)n(-c5ccc(OCC)cc5)c(=O)c4nn3c2=O)cc1`: the pEC50 is below 3.70 and the pIC50 is below 3.70. Take `Clc1ccccc1C1N2CCCCC2[C@@H]2c3[nH]c4ccccc4c3CCN12` (stereo partly specified): the pEC50 was below 4.30 and the pIC50 was below 4.30. Consider `COc1cc(/C=C/C(=O)OCC23CC[C@@]4(C(=O)O)CCC(C)[C@H](C)C4C2=CCC2[C@@]4(C)CC[C@H](O)C(C)(C)C4CC[C@]23C)ccc1O` (stereo partly specified), for which the pEC50 was below 3.70 and the pIC50 is 5.98. As to `COc1cccc2c1C(=O)c1c(O)c3c(c(O)c1C2=O)C[C@@](O)(/C(C)=N/NC(=O)c1ccccc1)C[C@@H]3OC1CC(N)C(O)C(C)O1` (stereo partly specified), the pEC50 is below 4.30 and the pIC50 is 7.80. The like results for `CC1(C)OC(=S)N(c2ccccc2)C12C=Cc1ccccc1O2` (stereo unspecified) were, in that order, below 3.70 and 4.45. The like results for `COc1cc(C2(C)OC(=O)c3ccccc32)c(OC)c2ccccc12` (stereo unspecified) were, in that order, below 4.35 and 5.11.

Take `CC(C)(C)[Si](C)(C)OC1C(n2ccc(=O)[nH]c2=O)OC(COC(c2ccccc2)(c2ccccc2)c2ccccc2)C1(CC#N)Sc1ccccc1` (stereo unspecified): the pEC50 was below 3.70 and the pIC50 is below 3.70. For `Cc1cc(N(CCC#N)CCC#N)ccc1/C=N/NC(=O)c1cc(Cl)ccc1O`, the pEC50 is below 3.70 and the pIC50 was below 3.70. Take `COC(=O)c1cccc2cccc(C(=O)Nc3ccc(C)cc3C)c12`: the pEC50 is below 5.65 and the pIC50 is below 5.65. Consider `Oc1cc(CN2CCOCCOCCOCCOCC2)c(O)cc1CN1CCOCCOCCOCCOCC1`, for which the pEC50 was below 3.36 and the pIC50 is 4.88.

In the case of `CC(C)(C)[Si](C)(C)OCC1OC(n2ccc(=O)[nH]c2=O)CC1(O)C/C=N/O` (stereo unspecified), the pEC50 is below 3.70 and the pIC50 is 4.90. On to `CCCCCC=C(c1cc(Br)c(OC)c(C(=O)O)c1)c1cc(Br)c(OC)c(C(=O)O)c1`, for which the pEC50 is below 3.70 and the pIC50 was 4.04. The like results for `O=c1ccnc2c1ccc1[nH]cccc12` were, in that order, below 2.90 and 4.19. On to `O=C(CCCCCCCCc1ccc(O)cc1)c1c(O)cccc1O`, for which the result was inactive. On to `CS(=O)(=O)OCC1OS(=O)OC1COS(C)(=O)=O` (stereo unspecified), for which the pEC50 is below 3.70 and the pIC50 is 5.31. As for `O=C(COc1ccc2c(=O)cc(-c3ccc(Cl)cc3)oc2c1)N1CCN(c2ccccc2)CC1`, the pEC50 is 6.09 and the negative-log IC50 (pIC50) was 4.68.

For the compound `O=[N+]([O-])c1ccc(N/N=C2\C=CCCC2)c([N+](=O)[O-])c1`, the pEC50 is below 3.70 and the pIC50 was below 3.70. Take `CN(CC#N)C(=O)Cc1ccc([N+](=O)[O-])cc1`: the pEC50 is below 3.70 and the pIC50 was below 3.70. With `Cc1nc2ccccc2c(=O)n1-c1nc2ccccc2s1`, the pEC50 was below 3.70 and the pIC50 is 4.50. The like results for `O=C(O)CCCn1nnc2c(=O)[nH][nH]c(=O)c21` were, in that order, below 3.70 and below 3.70. With `CC(=O)Nc1ccc(Nc2cc(=O)[nH]c(=O)[nH]2)cc1`, the pEC50 was below 3.70 and the pIC50 is below 3.70. For the compound `COc1ccc(-c2cc(C(=O)Nc3ccc(C)c(C)c3)nc(NC#N)n2)cc1`, the pEC50 was below 3.47 and the pIC50 is below 3.47. Regarding `NC(CCCC(N)P(=O)(O)c1ccccc1)P(=O)(O)c1ccccc1` (stereo unspecified), the pEC50 is below 3.18 and the pIC50 is below 3.18. In the case of `Cc1sc2c(c1C)/C(=N\O)c1cccn1-2`, the pEC50 was below 3.70 and the pIC50 is 4.38. The like results for `C1=Cc2nc1c(-c1ccccc1)c1ccc([n-]1)c(-c1ccccc1)c1nc(c(-c3ccccc3)c3ccc([n-]3)c2-c2ccccc2)C=C1.[Zn+2]` were, in that order, below 4.56 and below 4.56. The like results for `CC(C)(C)c1cc(C(=O)/C=C/c2ccc(C(=O)O)cc2)cc(C(C)(C)C)c1` were, in that order, below 4.82 and 5.08. The like results for `O=c1[nH]cc(SSc2c[nH]c(=O)[nH]c2=O)c(=O)[nH]1` were, in that order, 3.86 and below 3.70.

Turning to `O=C1CCC23/C=C/C(=O)NCCCCNCCCNC(=O)/C=C/c4ccc(c2c4)OC3C1` (stereo unspecified), the pEC50 is below 3.83 and the pIC50 was below 3.83.

Take `N=c1ccn2c(n1)OC1C(OP(=O)(O)O)C(CO)OC12` (stereo unspecified): the pEC50 is below 3.70 and the pIC50 was 6.36.

With `COC(=O)c1cc(C(=CCCC(C)[C@H]2CCC3C4CC[C@@H]5CC(F)(F)CC[C@]5(C)C4CC[C@@]32C)c2cc(Cl)c(OC)c(C(=O)OC)c2)cc(Cl)c1OC` (stereo partly specified), the pEC50 was below 4.00 and the pIC50 is below 4.00. Turning to `COc1ccccc1/C=C(\C#N)C(=O)c1ccccc1`, the pEC50 is below 4.70 and the pIC50 was below 4.70. For the compound `CC[C@@H](CCCC[C@@H]1CC[C@H]2CC(=O)C[C@@H]12)OC`, the pEC50 is below 3.70 and the pIC50 was 3.73.

Regarding `CNC(=O)CCCNC(=O)CCCC(=O)OC`, the pEC50 is below 3.70 and the pIC50 was below 3.70.

`O=C1CC(c2ccco2)C2(C(=O)NC(=O)NC2=O)C(c2ccco2)C1` (stereo unspecified): the pEC50 was below 3.70 and the pIC50 was below 3.70. With `CCOC(=O)C1=C(Nc2ccc(Cl)c(Cl)c2)OC/C1=N\NC(=O)Cc1ccccc1`, the pEC50 is below 4.00 and the pIC50 is below 4.00. For `O=C1CCC(=O)c2c1c(O)c1ccncc1c2O`, the result was inactive. Same read-out and setting: the same measure for `C1CC2=C(C1)C1=S(S2)SC2=C1CCC2`: “inactive”. On to `C[CH2][Sn]([CH2]C)([O]C(=O)c1c(F)cccc1F)[O][Sn]([CH2]C)([CH2]C)[O]C(=O)c1c(F)cccc1F`, for which the pEC50 is below 4.14 and the pIC50 is 5.32. Take `Brc1ccccc1C1SCc2nc3ncccc3n21` (stereo unspecified): the pEC50 is below 4.11 and the pIC50 was below 4.11.

For `COc1ccc(OC)c2[nH]c(CCc3nc4c(OC)ccc(OC)c4[nH]3)nc12`, the result was inactive. Turning to `O=C(OCc1ccccc1)N(Cc1ccccc1)S(=O)(=O)c1ccccc1`, the pEC50 was below 3.70 and the pIC50 is below 3.70. Turning to `Cc1ccc(Nc2nc(C)c(C(=O)C/C(=N/NC(N)=S)C(=O)Nc3cc(Cl)cc(Cl)c3)s2)cc1`, the pEC50 was below 3.70 and the pIC50 is 3.75.

Consider `Nc1ccc2c(O)c(N=Nc3ccc(N=Nc4ccc(S(=O)(=O)O)cc4)cc3)c(S(=O)(=O)O)cc2c1N=Nc1ccc(N=Nc2ccc(S(=O)(=O)O)cc2)cc1`, for which the outcome was active. As to `CC(C)S(=O)(=O)ON1C(=O)c2ccc(N(C)C)cc2C1=O`, the pEC50 is below 4.08 and the pIC50 was below 4.08. With `O=C(C(/C=N\C(=S)Nc1ccccc1Cl)=C(/O)c1ccccc1)c1ccccc1`, the pEC50 is below 3.70 and the pIC50 is 4.92. Turning to `COc1ccc(-c2cc3c(nn2)-c2ccccc2C3=O)cc1`, the pEC50 is below 4.00 and the pIC50 is below 4.00.

As to `NS(=O)(=O)c1ccc(NC(=O)c2cccc3c(=O)c4ccccc4[nH]c23)cc1`, the result was inactive. For `CC(C)OP(=O)(OC(C)C)/C(N)=N/Nc1ccc([N+](=O)[O-])cc1`, the pEC50 is below 3.71 and the pIC50 was below 4.00. The like results for `CCCCn1c(N)c(N=O)c(=O)n(CCCC)c1=O` were, in that order, below 3.70 and 4.05.

In the case of `CNC1(C#N)CCN(Cc2ccccc2)CC1`, the pEC50 was below 3.70 and the pIC50 is below 3.70. As to `Cc1c(C(=O)CC(=O)C(=O)Nc2ccc(Cl)c(Cl)c2)[n+](=O)c2ccccc2n1[O-]`, the pEC50 is below 5.20 and the pIC50 was below 5.20.

With `Nc1ncc(N)c(NCC2(CO)CC(CCc3ccccc3)C2)n1` (stereo unspecified), the pEC50 is below 3.70 and the pIC50 is 5.31. The like results for `CC1(C)OCC2OC3OC(C)(C)OC3C(OS(C)(=O)=O)C2O1` (stereo unspecified) were, in that order, below 3.70 and below 3.70. The like results for `Fc1sc2c(c1F)C1CCC2C1` (stereo unspecified) were, in that order, below 3.70 and 3.94.

For the compound `CC1=C2C3OC(=O)C(C)C3C(O)C[C@@]2(C)C(=O)CC1` (stereo partly specified), the outcome was inactive. Turning to `Cc1cccc(N2C(c3ccccc3)c3ccc(C)cc3NS2=O)c1` (stereo unspecified), the pEC50 is below 3.59 and the pIC50 was 3.82. In the case of `CCn1c(C)nn2c(=O)c3ccccc3nc2c1=O`, the pEC50 was below 4.00 and the pIC50 is below 4.00.

Take `C[C@@H]1CC[C@@]2(OC1)O[C@H]1C[C@H]3[C@@H]4CC[C@H]5C[C@@H](OC6OC(CO)C(OC7OC(CO)C(O)C(OC8OCC(O)C(O)C8O)C7OC7OC(CO)C(O)C(O)C7O)C(O)C6O)[C@H](O)C[C@]5(C)[C@H]4CC[C@]3(C)[C@H]1[C@@H]2C` (stereo partly specified): the pEC50 is below 5.70 and the pIC50 is 6.00.

These data come from PubChem BioAssay AID179 (DTP/NCI, 2004).
